Results reported in patent US20200331925A1, “HETEROCYCLIC COMPOUNDS FOR THE TREATMENT OF ABNORMAL CELLULAR PROLIFERATION” (G1 Therapeutics, Inc., priority 2018, published 2020).

Experiments:
Format in all cases: biochemical
CDK4/Cyclin D1 = CDK4/Cyclin D1 (Homo sapiens, UniProt P11802); experiment: CDK4/Cyclin D1 kinase assay (Nanosyn, Caliper microfluidic); settings: 12-point dose-response, ATP at Km (200 μM), 3 hr; Table 4
Method: (§1) Selected compounds disclosed herein were tested in kinase assays by Nanosyn (Santa Clara, Calif.) to determine their inhibitory effect on selected CDKs. The assays were performed using microfluidic kinase detection technology (Caliper Assay Platform). The compounds were tested in 12-point dose-response format in singlicate at Kmfor ATP. Phosphoacceptor substrate peptide concentration used was 1 μM for all assays and Staurosporine was used as the reference compound for all assays. Specifics of each assay are as described below: CDK4/Cyclin D1: Enzyme concentration: 1 nM; ATP concentration: 200 μM; Incubation time: 3 hr.

CDK2/Cyclin A = CDK2/Cyclin A (Homo sapiens, UniProt P24941); experiment: CDK2/Cyclin A kinase assay (Nanosyn, Caliper microfluidic); settings: 12-point dose-response, ATP at Km (50 μM), 3 hr
Method: as §1, with “below: CDK2/Cyclin A:” for “below: CDK4/Cyclin D1:”, “concentration: 0.1” for “concentration: 1”, “concentration: 50” for “concentration: 200”

CDK5/p25 = CDK5/p25 (Homo sapiens, UniProt Q00535); experiment: CDK5/p25 kinase assay (Nanosyn, Caliper microfluidic); settings: 12-point dose-response, ATP at Km (20 μM), 3 hr
Method: as §1, with “below: CDK5/p25:” for “below: CDK4/Cyclin D1:”, “concentration: 0.1” for “concentration: 1”, “concentration: 20” for “concentration: 200”

CDK2/Cyclin E = CDK2/Cyclin E (Homo sapiens, UniProt P24941); experiment: CDK2/Cyclin E kinase assay (Nanosyn, Caliper microfluidic); settings: 12-point dose-response, ATP at Km (100 μM), 3 hr
Method: as §1, with “below: CDK2/Cyclin E:” for “below: CDK4/Cyclin D1:”, “concentration: 0.15” for “concentration: 1”, “concentration: 100” for “concentration: 200”

CDK5/p35 = CDK5/p35 (Homo sapiens, UniProt Q00535); experiment: CDK5/p35 kinase assay (Nanosyn, Caliper microfluidic); settings: 12-point dose-response, ATP at Km (20 μM), 3 hr
Method: as §1, with “below: CDK5/p35:” for “below: CDK4/Cyclin D1:”, “concentration: 0.05” for “concentration: 1”, “concentration: 20” for “concentration: 200”

CDK6/Cyclin D3 = CDK6/Cyclin D3 (Homo sapiens, UniProt Q00534); experiment: CDK6/Cyclin D3 kinase assay (Nanosyn, Caliper microfluidic); settings: 12-point dose-response, ATP at Km (300 μM), 3 hr
Method: as §1, with “below: CDK6/Cyclin D3:” for “below: CDK4/Cyclin D1:”, “concentration: 2” for “concentration: 1”, “concentration: 300” for “concentration: 200”

CDK1/Cyclin B1 = CDK1/Cyclin B1 (Homo sapiens, UniProt P06493); experiment: CDK1/Cyclin B1 kinase assay (Nanosyn, Caliper microfluidic); settings: 12-point dose-response, ATP at Km (40 μM), 3 hr
Method: as §1, with “below: CDK1/Cyclin B1:” for “below: CDK4/Cyclin D1:”, “concentration: 0.08” for “concentration: 1”, “concentration: 40” for “concentration: 200”

CDK3/Cyclin E = CDK3/Cyclin E (Homo sapiens, UniProt Q00526); experiment: CDK3/Cyclin E kinase assay (Nanosyn, Caliper microfluidic); settings: 12-point dose-response, ATP at Km (400 μM), 3 hr
Method: as §1, with “CDK3/Cyclin E:” for “CDK4/Cyclin D1:”, “400” for “200”

CDK7/Cyclin H = CDK7/Cyclin H (Homo sapiens, UniProt P50613); experiment: CDK7/Cyclin H kinase assay (Nanosyn, Caliper microfluidic); settings: 12-point dose-response, ATP at Km (50 μM), 17 hr
Method: as §1, with “below: CDK7/Cyclin H:” for “below: CDK4/Cyclin D1:”, “concentration: 10” for “concentration: 1”, “concentration: 50” for “concentration: 200”, “time: 17” for “time: 3”

CDK9/Cyclin T = CDK9/Cyclin T (Homo sapiens, UniProt P50750); experiment: CDK9/Cyclin T kinase assay (Nanosyn, Caliper microfluidic); settings: 12-point dose-response, ATP at Km (10 μM), 17 hr; Table 5
Method: as §1, with “below: […]:” for “below: CDK4/Cyclin D1:”, “concentration: 5” for “concentration: 1”, “concentration: 10” for “concentration: 200”, “time: 17” for “time: 3”

Chain of CDK6/Cyclin D3 (Q00534 whole entry): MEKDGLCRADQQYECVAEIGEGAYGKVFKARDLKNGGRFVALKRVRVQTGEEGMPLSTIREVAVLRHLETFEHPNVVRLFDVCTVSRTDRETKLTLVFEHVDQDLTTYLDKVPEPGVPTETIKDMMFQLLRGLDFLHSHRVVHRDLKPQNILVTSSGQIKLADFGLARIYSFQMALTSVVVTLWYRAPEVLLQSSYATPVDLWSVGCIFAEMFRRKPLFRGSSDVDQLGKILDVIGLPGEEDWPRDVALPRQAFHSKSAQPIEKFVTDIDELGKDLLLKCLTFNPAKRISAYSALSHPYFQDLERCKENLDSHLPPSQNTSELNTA
Chain of CDK6/Cyclin D3 (P30281 whole entry partner): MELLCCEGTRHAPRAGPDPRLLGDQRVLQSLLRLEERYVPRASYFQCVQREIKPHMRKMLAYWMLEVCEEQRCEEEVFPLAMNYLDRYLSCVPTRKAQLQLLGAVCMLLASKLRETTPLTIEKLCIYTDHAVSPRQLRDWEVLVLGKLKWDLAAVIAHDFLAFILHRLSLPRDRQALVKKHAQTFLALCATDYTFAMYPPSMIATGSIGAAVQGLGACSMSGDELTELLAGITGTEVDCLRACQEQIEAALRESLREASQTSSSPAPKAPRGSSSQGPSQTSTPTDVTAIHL
Chain of CDK5/p35 (Q00535 whole entry): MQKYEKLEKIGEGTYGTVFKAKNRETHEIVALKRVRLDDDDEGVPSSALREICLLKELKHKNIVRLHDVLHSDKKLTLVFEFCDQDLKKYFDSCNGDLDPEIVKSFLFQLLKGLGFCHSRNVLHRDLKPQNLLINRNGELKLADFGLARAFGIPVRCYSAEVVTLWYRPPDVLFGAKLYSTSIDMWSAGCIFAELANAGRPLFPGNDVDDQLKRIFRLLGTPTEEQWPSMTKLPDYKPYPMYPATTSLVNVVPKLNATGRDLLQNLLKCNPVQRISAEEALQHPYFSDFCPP
Chain of CDK5/p35 (Q15078 whole entry partner): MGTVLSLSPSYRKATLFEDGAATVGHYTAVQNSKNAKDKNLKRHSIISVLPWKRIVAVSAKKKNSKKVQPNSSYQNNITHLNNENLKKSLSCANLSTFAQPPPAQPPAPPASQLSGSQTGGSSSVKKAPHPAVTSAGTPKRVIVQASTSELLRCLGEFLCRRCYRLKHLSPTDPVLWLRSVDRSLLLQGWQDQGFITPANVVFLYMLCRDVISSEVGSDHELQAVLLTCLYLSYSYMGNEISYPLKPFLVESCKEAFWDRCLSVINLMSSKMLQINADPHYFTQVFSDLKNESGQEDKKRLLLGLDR
Chain of CDK5/p25 (Q00535 whole entry): as the sequence (Q00535 whole entry) above
Chain of CDK5/p25 (Q15078 99-307 partner limits assumed): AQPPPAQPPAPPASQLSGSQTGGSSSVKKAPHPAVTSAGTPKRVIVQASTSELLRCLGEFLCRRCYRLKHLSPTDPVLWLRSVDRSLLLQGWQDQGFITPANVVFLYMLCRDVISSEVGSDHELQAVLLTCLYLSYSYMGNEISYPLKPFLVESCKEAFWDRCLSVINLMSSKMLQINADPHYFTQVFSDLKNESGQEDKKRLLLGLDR
Chain of CDK4/Cyclin D1 (P11802 whole entry): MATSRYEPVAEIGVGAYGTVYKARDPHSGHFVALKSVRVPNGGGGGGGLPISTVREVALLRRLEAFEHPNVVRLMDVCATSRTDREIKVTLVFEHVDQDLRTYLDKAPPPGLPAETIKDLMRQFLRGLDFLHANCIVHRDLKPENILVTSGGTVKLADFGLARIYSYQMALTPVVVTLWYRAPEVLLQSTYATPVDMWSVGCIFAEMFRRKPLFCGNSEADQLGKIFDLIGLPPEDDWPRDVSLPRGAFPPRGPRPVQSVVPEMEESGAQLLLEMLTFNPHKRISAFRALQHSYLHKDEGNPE
Chain of CDK4/Cyclin D1 (P24385 whole entry partner): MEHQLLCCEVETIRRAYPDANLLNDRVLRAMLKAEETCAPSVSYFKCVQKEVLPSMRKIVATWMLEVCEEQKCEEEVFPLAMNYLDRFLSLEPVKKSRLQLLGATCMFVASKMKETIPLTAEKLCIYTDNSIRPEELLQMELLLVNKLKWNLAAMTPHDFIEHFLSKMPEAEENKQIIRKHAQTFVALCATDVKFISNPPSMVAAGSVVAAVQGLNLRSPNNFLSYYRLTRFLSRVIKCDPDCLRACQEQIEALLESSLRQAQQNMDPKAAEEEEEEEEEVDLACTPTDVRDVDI
Chain of CDK9/Cyclin T (P50750 whole entry): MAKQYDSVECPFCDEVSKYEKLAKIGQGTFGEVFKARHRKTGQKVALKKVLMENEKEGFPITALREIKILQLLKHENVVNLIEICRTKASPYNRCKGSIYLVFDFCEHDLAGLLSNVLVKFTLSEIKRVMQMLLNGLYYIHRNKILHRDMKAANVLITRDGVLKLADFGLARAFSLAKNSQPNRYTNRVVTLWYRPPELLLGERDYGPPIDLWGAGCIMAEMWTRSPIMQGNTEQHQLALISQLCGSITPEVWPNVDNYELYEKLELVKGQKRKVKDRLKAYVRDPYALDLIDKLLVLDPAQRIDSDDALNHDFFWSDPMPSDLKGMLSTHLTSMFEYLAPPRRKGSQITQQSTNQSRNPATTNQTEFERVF
Chain of CDK9/Cyclin T (O60563 whole entry partner): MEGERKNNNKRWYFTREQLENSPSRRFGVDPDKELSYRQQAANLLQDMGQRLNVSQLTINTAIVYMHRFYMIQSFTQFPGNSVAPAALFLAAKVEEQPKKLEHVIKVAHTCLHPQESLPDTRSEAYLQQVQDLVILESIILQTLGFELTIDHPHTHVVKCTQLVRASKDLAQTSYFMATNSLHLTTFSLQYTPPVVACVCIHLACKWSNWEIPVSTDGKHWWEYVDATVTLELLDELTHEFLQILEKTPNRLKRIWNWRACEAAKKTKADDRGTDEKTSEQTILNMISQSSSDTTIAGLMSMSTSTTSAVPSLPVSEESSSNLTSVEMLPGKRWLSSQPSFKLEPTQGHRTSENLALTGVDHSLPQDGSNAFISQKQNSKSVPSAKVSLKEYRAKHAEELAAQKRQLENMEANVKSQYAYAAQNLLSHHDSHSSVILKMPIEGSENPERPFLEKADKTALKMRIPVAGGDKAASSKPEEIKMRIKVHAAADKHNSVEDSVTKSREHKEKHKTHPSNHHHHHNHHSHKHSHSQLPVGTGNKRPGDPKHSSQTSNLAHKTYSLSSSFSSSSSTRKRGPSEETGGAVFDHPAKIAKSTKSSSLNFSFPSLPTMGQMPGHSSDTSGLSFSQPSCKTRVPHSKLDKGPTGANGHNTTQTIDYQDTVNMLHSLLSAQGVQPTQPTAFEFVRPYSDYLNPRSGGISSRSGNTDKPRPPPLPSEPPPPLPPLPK
Chain of CDK1/Cyclin B1 (P06493 whole entry): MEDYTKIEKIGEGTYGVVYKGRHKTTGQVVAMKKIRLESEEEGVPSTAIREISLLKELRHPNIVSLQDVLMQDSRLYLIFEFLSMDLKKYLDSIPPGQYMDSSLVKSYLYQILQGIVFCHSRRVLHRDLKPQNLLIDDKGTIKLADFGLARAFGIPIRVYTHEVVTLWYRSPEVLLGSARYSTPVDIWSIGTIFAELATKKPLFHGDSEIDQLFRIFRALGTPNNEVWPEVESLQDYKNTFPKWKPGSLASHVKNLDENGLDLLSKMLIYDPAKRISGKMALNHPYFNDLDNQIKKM
Chain of CDK1/Cyclin B1 (P14635 whole entry partner): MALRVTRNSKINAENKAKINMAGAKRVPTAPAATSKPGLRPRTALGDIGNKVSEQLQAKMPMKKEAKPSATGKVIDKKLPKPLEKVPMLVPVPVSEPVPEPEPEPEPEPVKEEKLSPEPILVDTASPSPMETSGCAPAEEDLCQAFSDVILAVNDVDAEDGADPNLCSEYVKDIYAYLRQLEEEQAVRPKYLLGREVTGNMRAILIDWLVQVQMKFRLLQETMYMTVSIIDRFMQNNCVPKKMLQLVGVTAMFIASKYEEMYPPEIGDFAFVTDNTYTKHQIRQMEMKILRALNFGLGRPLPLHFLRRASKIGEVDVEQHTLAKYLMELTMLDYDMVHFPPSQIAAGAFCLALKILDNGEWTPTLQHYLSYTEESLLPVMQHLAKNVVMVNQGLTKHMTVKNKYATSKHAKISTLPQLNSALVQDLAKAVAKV

IC50 (CDK4/Cyclin D1) | IC50 (CDK2/Cyclin A) | IC50 (CDK5/p25) | IC50 (CDK2/Cyclin E) | IC50 (CDK5/p35) | IC50 (CDK6/Cyclin D3) | IC50 (CDK1/Cyclin B1) | IC50 (CDK3/Cyclin E) | IC50 (CDK7/Cyclin H) | IC50 (CDK9/Cyclin T) | SMILES
670 nM | 420 nM | 660 nM | 260 nM | 740 nM | 2000 nM | 1700 nM | 640 nM | 3600 nM | 600 nM | C[C@H]1CC[C@H](Nc2ncc3cc4n(c3n2)C2(CCCCC2)CN=C4)CC1 [Compound 54, N-((1r,4r)-4-methylcyclohexyl)-8′H-spiro[cyclohexane-1,9′-pyrazino[1′,2′:1,5]pyrrolo[2,3-d]pyrimidin]-2′-amine]
69 nM | 78 nM | 230 nM | 190 nM | 170 nM | 350 nM | 410 nM | 510 nM | 3400 nM | 56 nM | CS(=O)(=O)N[C@H]1CC[C@H](Nc2ncc3cc4n(c3n2)C2(CCCCC2)CNC4=O)CC1 [Compound 22, N-((1,4-trans)-4-((6′-oxo-7′,8′-dihydro-6′H-spiro[cyclohexane-1,9′-pyrazino[1′,2′:1,5]pyrrolo[2,3-d]pyrimidin]-2′-yl)amino)cyclohexyl)methanesulfonamide]
6.7 nM | 150 nM | 970 nM | 310 nM | 1100 nM | 23 nM | 330 nM | 210 nM | 85 nM | 4.3 nM | S=C1NCC2(CCCCC2)n2c1cc1cnc(N[C@@H]3CCCNC3)nc12 [Compound 41, (R)-2′-(piperidin-3-ylamino)-7′,8′-dihydro-6′H-spiro[cyclohexane-1,9′-pyrazino[1′,2′:1,5]pyrrolo[2,3-d]pyrimidine]-6′-thione]
92 nM | 810 nM | 2000 nM | 330 nM | 1700 nM | 680 nM | 1400 nM | 460 nM | 120 nM | 22 nM | N[C@H]1CC[C@@H](Nc2ncc3cc4n(c3n2)C2(CCCCC2)CN=C4)CC1 [Compound 55, (1s,4s)-N^1-(8′H-spiro[cyclohexane-1,9′-pyrazino[1′,2′:1,5]pyrrolo[2,3-d]pyrimidin]-2′-yl)cyclohexane-1,4-diamine]
170 nM | 28000 nM | 55000 nM | 35000 nM | 47000 nM | 940 nM | 39000 nM | 56000 nM | 61000 nM | 690 nM | O=C1NCC2(CCCCC2)n2c1cc1cnc(N[C@H]3CCCNC3=O)nc12 [Compound 23, (S)-2′-((2-oxopiperidin-3-yl)amino)-7′,8′-dihydro-6′H-spiro[cyclohexane-1,9′-pyrazino[1′,2′:1,5]pyrrolo[2,3-d]pyrimidin]-6′-one]
2900 nM | 12000 nM | 52000 nM | 27000 nM | 29000 nM | 8400 nM | 18000 nM | 33000 nM | 17000 nM | 190 nM | O=C(C[C@@H]1CCCN1)Nc1ncc2cc3n(c2n1)C1(CCCCC1)CNC3=O [Compound 34, (S)-N-(6′-oxo-7′,8′-dihydro-6′H-spiro[cyclohexane-1,9′-pyrazino[1′,2′:1,5]pyrrolo[2,3-d]pyrimidin]-2′-yl)-2-(pyrrolidin-2-yl)acetamide]
2300 nM | 3100 nM | 19000 nM | 12000 nM | 16000 nM | 14000 nM | 5600 nM | 8600 nM | 12000 nM | 12 nM | O=C1NCC2(CCCCC2)n2c1cc1cnc(NC(=O)[C@@H]3CCNC3)nc12 [Compound 32, (R)-N-(6′-oxo-7′,8′-dihydro-6′H-spiro[cyclohexane-1,9′-pyrazino[1′,2′:1,5]pyrrolo[2,3-d]pyrimidin]-2′-yl)pyrrolidine-3-carboxamide]
3300 nM | 6100 nM | 34000 nM | 26000 nM | 34000 nM | 12000 nM | 16000 nM | 23000 nM | 20000 nM | 35 nM | O=C1NCC2(CCCCC2)n2c1cc1cnc(NC(=O)[C@H]3CCNC3)nc12 [Compound 33, (S)-N-(6′-oxo-7′,8′-dihydro-6′H-spiro[cyclohexane-1,9′-pyrazino[1′,2′:1,5]pyrrolo[2,3-d]pyrimidin]-2′-yl)pyrrolidine-3-carboxamide]
8.9 nM | 4.3 nM | 5.5 nM | 7.8 nM | 7.5 nM | 22 nM | 8.8 nM | 12 nM | 240 nM | 1.2 nM | NS(=O)(=O)c1cccc(Nc2ncc3cc4n(c3n2)C2(CCCCC2)CNC4=O)c1 [Compound 42, 3-((6′-oxo-7′,8′-dihydro-6′H-spiro[cyclohexane-1,9′-pyrazino[1′,2′:1,5]pyrrolo[2,3-d]pyrimidin]-2′-yl)amino)benzenesulfonamide]
